For one compound, AUC and bioavailability results are on record in ChEMBL document CHEMBL4000251, “Discovery of 4-chloro-2-(2,4-dichloro-6-methylphenoxy)-1-methyl-7-(pentan-3-yl)-1H-benzimidazole, a novel CRF1 receptor antagonist” (Bioorg Med Chem, 2017).

Data set [1] in a line: AUC in rat at 1 mg/kg, po. The format is ADME, organism-based. The following applies: in vivo.
Data set [2] in a line: Oral bioavailability in rat at 1 mg/kg. The format is ADME, organism-based. The settings on record: in vivo.

`CCC(CC)c1ccc(Cl)c2nc(Oc3c(C)cc(Cl)cc3Cl)n(C)c12`: in data set [1], the AUC (in general, concentration integrated over time) was determined as 94.6 ng·h/mL. For the same compound, in data set [2], the bioavailability (as a rule, the share of a dose that reaches the circulation, judged against a reference dose that is usually intravenous) worked out at 30.8%.
